Structures can show the parent of a compound that is named as a salt.
Test system: bacterial strains that express KPC β-lactamases
Assay: Synergy MIC / standard BLI potentiation MIC assay against strains expressing KPC β-lactamases
Type: cell-based
Conditions: in the presence of a β-lactam; comparator Avibactam
Experimental: The experimental protocol was performed according to Clinical and Laboratory Standards Institute (CLSI) guidelines with modifications as described below (CLSI guidelines can be derived from the CLSI document M07-A9 published in January 2012: “Methods for Dilution Antimicrobial Susceptibility Tests for Bacteria That Grow Aerobically; Approved Standard-Ninth Edition”).
To prepare for MIC testing, frozen glycerol stocks of clinical isolates (Klebsiella pneumoniae, Eschericia coli, Enterobacter spp, Citrobacter spp, or Pseudomonas aeruginosa) were used to streak for isolated colonies on rich, non-selective, tryptic soy agar containing 5% sheep's blood (TSAB). Frozen glycerol stocks of laboratory engineered, isogenic E. coli strains, which contain cloned β-lactamase expressing plasmids were used to streak for isolated colonies on rich, selective LB agar supplemented with 25 μg/mL tetracycline to maintain the plasmid. All strains were incubated at 37° C. for 18-24 hrs.
On the day of testing, primary cultures were started by scraping off 5-10 colonies from the TSAB plates containing clinical strains or the tetracycline supplemented LB plates containing engineered strains. The clinical strain material was suspended in ˜5 mL of cation adjusted Mueller Hinton Broth (CAMHB) in 14 mL culture tubes. The engineered strain material was suspended in CAMHB (supplemented with 25 μg/mL tetracycline) in 14 mL culture tubes. All strains were incubated at 37° C. with aeration (200 rpm) for ˜2 hrs until the optical density at 600 nm (OD600) was >0.1.
The two compound components of the assay were each diluted in CAMHB and added to the 96-well broth microdilution assay plates. 50 μL of the β-lactam was added to each well of the assay plate in 2-fold dilutions with final concentrations ranging from 128 to 0.13 μg/mL. 25 μL, of the BLI compound was added to all wells in the broth microdilution plates at a final concentration of 4 μg/mL. Inoculum cultures were prepared by standardizing the primary cultures to OD600=0.1 and then adding 20 μL of the adjusted primary culture per 1 mL CAMHB for clinical strains or CAMHB (supplemented with tetracycline at 100 μg/mL) for engineered strains, so that the final inoculum density was ˜10^5 colony forming units per milliliter. Diluted inoculum cultures were used to inoculate 25 μl, per well in 96-well broth microdilution assay plates. The final volume of each well was 100 μL and contained a β-lactam at different concentrations, a BLIcompound at 4 μg/mL concentration, the bacterial culture at an OD600 of approximately 0.001 and when necessary tetracycline at 25 μg/mL.
Plates were incubated for 18-20 hours at 37° C. with aeration (200 rpm). Following incubation, growth was confirmed visually placing plates over a viewing apparatus (stand with a mirror underneath) and then OD600 was measured using a SpectraMax 340PC384 plate reader (Molecular Devices, Sunnyvale, Calif.). Growth was defined as turbidity that could be detected with the naked eye or achieving minimum OD600 of 0.1. MIC values were defined as the lowest concentration producing no visible turbidity.
The synergy MIC (sMIC) assay determines the concentration of the BLI required to potentiate the activity of a fixed concentration of a β-lactam antibiotic against β-lactamase producing bacterial strains. The experimental protocol was performed according to Clinical and Laboratory Standards Institute (CLSI) guidelines with modifications as described below (CLSI guidelines can be derived from the CLSI document M07-A9 published in January 2012: “Methods for Dilution Antimicrobial Susceptibility Tests for Bacteria That Grow Aerobically; Approved Standard-Ninth Edition”). […]

Structure (SMILES)	more active than Avibactam for at least one bacterial strain that expresses KPC β-lactamase and/or better spectrum of activity against KPC strains
N=C(N)NC1CC(Cc2nnc([C@@H]3CC[C@@H]4CN3C(=O)N4OS(=O)(=O)O)o2)C1 (stereo partly drawn) [Compound 752, (2S,5R)-2-(5-(β-guanidinocyclobutyl)methyl)-1,3,4-oxadiazol-2-yl)-7-oxo-1,6-diazabicyclo[3.2.1]octan-6-yl hydrogen sulfate]	more active than Avibactam
N[C@H]1C[C@H](CCc2nnc([C@@H]3CC[C@@H]4CN3C(=O)N4OS(=O)(=O)O)o2)C1 [Compound 753, (2S,5R)-2-(5-(2-((1r,3R)-3-aminocyclobutyl)ethyl)-1,3,4-oxadiazol-2-yl)-7-oxo-1,6-diazabicyclo[3.2.1]octan-6-yl hydrogen sulfate]	more active than Avibactam
N[C@H]1C[C@@H](CCc2nnc([C@@H]3CC[C@@H]4CN3C(=O)N4OS(=O)(=O)O)o2)C1 [Compound 754, (2S,5R)-2-(5-(2-((1s,3S)-3-aminocyclobutyl)ethyl)-1,3,4-oxadiazol-2-yl)-7-oxo-1,6-diazabicyclo[3.2.1]octan-6-yl hydrogen sulfate]	more active than Avibactam
NC1CC(NCc2nnc([C@@H]3CC[C@@H]4CN3C(=O)N4OS(=O)(=O)O)o2)C1 (stereo partly drawn) [Compound 755, (2S,5R)-2-(5-(((3-aminocyclobutyl)amino)methyl)-1,3,4-oxadiazol-2-yl)-7-oxo-1,6-diazabicyclo[3.2.1]octan-6-yl hydrogen sulfate]	more active than Avibactam
N[C@H]1C[C@@H](NCc2nnc([C@@H]3CC[C@@H]4CN3C(=O)N4OS(=O)(=O)O)o2)C1 [Compound 756, (2S,5R)-2-(5-((((1s,3R)-3-aminocyclobutyl)amino)methyl)-1,3,4-oxadiazol-2-yl)-7-oxo-1,6-diazabicyclo[3.2.1]octan-6-yl hydrogen sulfate]	more active than Avibactam
O=C1N2C[C@@H](CC[C@H]2c2nnc([C@H]3CCNC3)o2)N1OS(=O)(=O)O [Compound 758, (2S,5R)-7-oxo-2-(5-((S)-pyrrolidin-3-yl)-1,3,4-oxadiazol-2-yl)-1,6-diazabicyclo[3.2.1]octan-6-yl hydrogen sulfate]	more active than Avibactam
O=C1N2C[C@@H](CC[C@H]2c2nnc([C@@H]3CCNC3)o2)N1OS(=O)(=O)O [Compound 759, (2S,5R)-7-oxo-2-(5-((R)-pyrrolidin-3-yl)-1,3,4-oxadiazol-2-yl)-1,6-diazabicyclo[3.2.1]octan-6-yl hydrogen sulfate]	more active than Avibactam
N[C@@H]1CN[C@H](c2nnc([C@@H]3CC[C@@H]4CN3C(=O)N4OS(=O)(=O)O)o2)C1 [Compound 760, (2S,5R)-2-(5-((2S,4S)-4-aminopyrrolidin-2-yl)-1,3,4-oxadiazol-2-yl)-7-oxo-1,6-diazabicyclo[3.2.1]octan-6-yl hydrogen sulfate]	more active than Avibactam
N[C@H]1CN[C@@H](c2nnc([C@@H]3CC[C@@H]4CN3C(=O)N4OS(=O)(=O)O)o2)C1 [Compound 761, (2S,5R)-2-(5-((2R,4R)-4-aminopyrrolidin-2-yl)-1,3,4-oxadiazol-2-yl)-7-oxo-1,6-diazabicyclo[3.2.1]octan-6-yl hydrogen sulfate]	more active than Avibactam
N[C@H]1CN[C@H](c2nnc([C@@H]3CC[C@@H]4CN3C(=O)N4OS(=O)(=O)O)o2)C1 [Compound 762, (2S,5R)-2-(5-((2S,4R)-4-aminopyrrolidin-2-yl)-1,3,4-oxadiazol-2-yl)-7-oxo-1,6-diazabicyclo[3.2.1]octan-6-yl hydrogen sulfate]	more active than Avibactam
N[C@@H]1CN[C@@H](c2nnc([C@@H]3CC[C@@H]4CN3C(=O)N4OS(=O)(=O)O)o2)C1 [Compound 763, (2S,5R)-2-(5-((2R,4S)-4-aminopyrrolidin-2-yl)-1,3,4-oxadiazol-2-yl)-7-oxo-1,6-diazabicyclo[3.2.1]octan-6-yl hydrogen sulfate]	more active than Avibactam
O=C1N2C[C@@H](CC[C@H]2c2nnc(CC3CCNC3)o2)N1OS(=O)(=O)O (stereo partly drawn) [Compound 764, (2S,5R)-7-oxo-2-(5-(pyrrolidin-3-ylmethyl)-1,3,4-oxadiazol-2-yl)-1,6-diazabicyclo[3.2.1]octan-6-yl hydrogen sulfate]	more active than Avibactam
O=C1N2C[C@@H](CC[C@H]2c2nnc(CN[C@H]3CCNC3)o2)N1OS(=O)(=O)O [Compound 765, (2S,5R)-7-oxo-2-(5-(((S)-pyrrolidin-3-ylamino)methyl)-1,3,4-oxadiazol-2-yl)-1,6-diazabicyclo[3.2.1]octan-6-yl hydrogen sulfate]	more active than Avibactam
O=C1N2C[C@@H](CC[C@H]2c2nnc(CN[C@@H]3CCNC3)o2)N1OS(=O)(=O)O [Compound 766, (2S,5R)-7-oxo-2-(5-(((R)-pyrrolidin-3-ylamino)methyl)-1,3,4-oxadiazol-2-yl)-1,6-diazabicyclo[3.2.1]octan-6-yl hydrogen sulfate]	more active than Avibactam
N=C1NCC(c2nnc([C@@H]3CC[C@@H]4CN3C(=O)N4OS(=O)(=O)O)o2)N1 (stereo partly drawn) [Compound 767, (2S,5R)-2-(5-(2-iminoimidazolidin-4-yl)-1,3,4-oxadiazol-2-yl)-7-oxo-1,6-diazabicyclo[3.2.1]octan-6-yl hydrogen sulfate]	more active than Avibactam
N[C@H]1CC[C@@H](c2nnc([C@@H]3CC[C@@H]4CN3C(=O)N4OS(=O)(=O)O)o2)C1 [Compound 768, (2S,5R)-2-(5-((1R,3S)-3-aminocyclopentyl)-1,3,4-oxadiazol-2-yl)-7-oxo-1,6-diazabicyclo[3.2.1]octan-6-yl hydrogen sulfate]	more active than Avibactam
O=C1N2C[C@@H](CC[C@H]2c2nnc(CCNC3CCNCC3)o2)N1OS(=O)(=O)O [Compound 770, (2S,5R)-7-oxo-2-(5-(2-(piperidin-4-ylamino)ethyl)-1,3,4-oxadiazol-2-yl)-1,6-diazabicyclo[3.2.1]octan-6-yl hydrogen sulfate]	more active than Avibactam
O=C1N2C[C@@H](CC[C@H]2c2nnc(CCCNC3CCNCC3)o2)N1OS(=O)(=O)O [Compound 771, (2S,5R)-7-oxo-2-(5-(3-(piperidin-4-ylamino)propyl)-1,3,4-oxadiazol-2-yl)-1,6-diazabicyclo[3.2.1]octan-6-yl hydrogen sulfate]	more active than Avibactam
O=C1N2C[C@@H](CC[C@H]2c2nnc(CCCCNC3CCNCC3)o2)N1OS(=O)(=O)O [Compound 772, (2S,5R)-7-oxo-2-(5-(4-(piperidin-4-ylamino)butyl)-1,3,4-oxadiazol-2-yl)-1,6-diazabicyclo[3.2.1]octan-6-yl hydrogen sulfate]	more active than Avibactam

Reference: US8933232B2, “1,3,4-oxadiazole and 1,3,4-thiadiazole beta-lactamase inhibitors” (priority 2012, dated 2015)
